Results published in paper PMC11054528, “Evaluation of Physicochemical Properties of Ipsapirone Derivatives Based on Chromatographic and Chemometric Approaches” (Molecules, 2024).

How the values were obtained:
[1] = biological target: human serum albumin (HSA) (Homo sapiens, UniProt P02768); experiment: HSA-HPLC, biomimetic chromatography on Chiralpak HSA column; format: in vitro ADME; set-up: purchased Daicel Chiral Technologies, West Chester, PA, USA; conditions: for LogKHSA: pH 7.4; for %HSA: pH 7.4, recalculated from logKHSA
Chain of human serum albumin (HSA) (P02768 25-609): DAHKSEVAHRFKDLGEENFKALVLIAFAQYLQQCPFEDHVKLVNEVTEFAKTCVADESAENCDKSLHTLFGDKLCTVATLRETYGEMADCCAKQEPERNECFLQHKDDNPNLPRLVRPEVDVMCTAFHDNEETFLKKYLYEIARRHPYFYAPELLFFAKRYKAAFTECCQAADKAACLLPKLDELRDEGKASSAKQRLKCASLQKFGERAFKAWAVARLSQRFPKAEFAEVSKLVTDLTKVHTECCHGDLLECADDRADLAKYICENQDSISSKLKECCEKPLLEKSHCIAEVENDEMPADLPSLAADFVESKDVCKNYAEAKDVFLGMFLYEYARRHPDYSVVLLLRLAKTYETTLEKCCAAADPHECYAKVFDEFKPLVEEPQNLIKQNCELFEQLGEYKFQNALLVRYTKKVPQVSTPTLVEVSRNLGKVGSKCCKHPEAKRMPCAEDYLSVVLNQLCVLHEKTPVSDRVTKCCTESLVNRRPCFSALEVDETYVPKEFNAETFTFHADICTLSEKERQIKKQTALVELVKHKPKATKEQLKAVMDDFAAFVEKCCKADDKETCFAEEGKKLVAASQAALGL
Text: Utilizing columns modified by plasma proteins, such as human serum albumin (HSA), allows for estimating binding to plasma protein (PPB). Generally, PPB affects drug pharmacokinetics, including distribution, half-life, and clearance. While lipophilicity is a well-known factor in determining PPB, it should also be considered in early drug discovery. In general, more lipophilic compounds tend to have higher percentages of PP due to nonspecific interactions with proteins. However, hydrophilic compounds can also bind strongly to PP through […] and electrostatic interactions by binding in protein pockets.
For HSA-HPLC experiments, the column was Chiralpak® HSA (100 × 4 mm; 5 µm with safety guard column; Daicel Chiral Technologies, West Chester, PA, USA). The column temperature was set to 30 °C. The same phase A as in the IAM-HPLC case was used, and the mobile phase B was isopropanol (i-PrOH). The linear gradient from 0 to 20% i-PrOH was applied from 0 to 15 min, held at 20% i-PrOH for 12 min, and then returned to pure ammonium acetate solution. The mobile phase flow rate was 0.9 mL/min throughout the experiment. Three minutes of column recalibration was applied between each run. The retention times were collected at wavelengths between 190 and 300 nm, and the injection volume was 10 μL.

[2] = IAM-HPLC, immobilized artificial membrane chromatography (affinity to phospholipids); format: physicochemical; set-up: scale not given here; conditions: IAM.PC.DD2 column, pH 7.4
Text: In considering that lipophilicity is a known factor influencing passive diffusion across the BBB, this is an important observation. The affinity to phospholipids can also be determined using one-gradient protocols and the IAM column. CHIIAM can be used as a cut-off point to indicate the potential for promiscuous binding and interference with phospholipids.
The immobilized artificial membrane column (IAM.PC.DD2, 10 × 4.6 mm × 10.0 µm with a guard column (Regis Technologies; Morton Grove, IL, USA) was used for IAM-HPLC experiments. The column temperature was set to 30 °C. Similar to RP-HPLC, mobile phase A was a 50 mM ammonium acetate at pH 7.4, and mobile phase B was acetonitrile. The linear gradient from […] ACN was applied from 0 to 5.25 min and held at 98% ACN for 0.5 min at a constant flow rate of 1.5 mL/min.

[3] = Fast gradient RP-HPLC on C18 column (CHI lipophilicity); format: physicochemical; conditions: for CHIC18 pH = 2.6 / CHIC18 pH = 7.4 / CHIC18 pH = 10.6: C18 column; for CHI LogP: from chromatographically determined CHI on nonionized forms (pH 10.6), CHI LogP = 0.054 × CHI − 1.467
Text: Considering the significant differences in the calculations obtained, the next step of our investigation considered the determination of lipophilicity using a chromatographic approach. Among the available protocols, the fast gradient approach developed by Valko was chosen because it enables the assessment of lipophilicity from a single chromatographic measurement. In addition, this approach enables the determination of the acid/basic properties of molecules through the addition of experiments under different pH conditions.
Therefore, the CHI under pH10.6 can be considered and converted to chromatographically determined LogP, called CHI LogP. A cluster analysis (CA) was performed to compare chromatographically determined and calculated lipophilicity. A CA can be used for the visualization of similarities and differences between studied objects, in this case, lipophilic parameters. The obtained results clearly indicate that significant differences between theoretical and experimental data occurred, and they formed two separate groups (Figure 1). The differences are also visible on the calculated correlation matrix (Figure 2).
For RP-HPLC experiments, a C18 Hypersil GOLD^TM (50 mm × 4.6 mm; 5.0 µm with a guard column; Thermo Scientific, Waltham, MA, USA) column was applied. The column temperature was set to 40 °C. Three water solutions were used as mobile phase A: acetic acid at pH 2.6, […] at pH 7.4, and 50 mM ammonium acetate at pH 10.5. Mobile phase B was acetonitrile (ACN). The linear gradient from 2 to 98% ACN was applied from 0 to 5.25 min and held at 98% ACN for 1.75. The mobile phase flow rate was 1.5 mL/min throughout the experiment.

| LogKHSA [1] | %HSA [1] [%] | CHIIAM [2] | CHIC18 pH = 2.6 [3] | CHIC18 pH = 7.4 [3] | CHIC18 pH = 10.6 [3] | CHI LogP [3] | affinity to HSA, in words [1] | affinity to HSA compared with reference diclofenac [1] | Structure (SMILES) |
| --- | --- | --- | --- | --- | --- | --- | --- | --- | --- |
| 1.71 | 99.06 | 46.73 | 61.89 | 108.61 | 111.92 | 4.58 | – | – | O=C1c2ccccc2S(=O)(=O)N1CCCCCCN1CCN(c2cccc(Cl)c2)CC1 [molecule 16] |
| 1.57 | 98.37 | 45.96 | 60.65 | 101.68 | 108.64 | 4.40 | – | – | O=C1c2ccccc2S(=O)(=O)N1CCCCCCN1CCN(c2cccc3sccc23)CC1 [molecule 25] |
| 1.72 | 99.13 | 46.90 | 60.08 | 110.90 | 109.41 | 4.44 | – | – | COc1ccccc1N1CCN(CCCCN2C(=O)c3ccccc3S2(=O)=O)CC1 [molecule 2] |
| 0.55 | 78.60 | 38.48 | 43.25 | 82.33 | 90.87 | 3.44 | – | – | O=C1c2ccccc2S(=O)(=O)N1CCCCCCN1CCN(c2ccccn2)CC1 [molecule 22] |
| 0.52 | 77.60 | 35.71 | 49.19 | 78.80 | 87.69 | 3.27 | – | – | O=C1c2ccccc2S(=O)(=O)N1CCCCN1CCN(c2cccc(Cl)c2Cl)CC1 [molecule 3] |
| 0.93 | 90.46 | 41.42 | 55.41 | 94.73 | 99.75 | 3.92 | – | – | COc1cccc(N2CCN(CCCCCCN3C(=O)c4ccccc4S3(=O)=O)CC2)c1 [molecule 14] |
| 0.42 | 73.28 | 40.54 | 54.89 | 84.12 | 96.78 | 3.76 | – | – | COc1ccccc1N1CCN(CCCCCCN2C(=O)c3ccccc3S2(=O)=O)CC1 [molecule 13] |
| 0.58 | 79.78 | 34.40 | 48.71 | 74.93 | 81.12 | 2.91 | – | – | O=C1c2ccccc2S(=O)(=O)N1CCCCCN1CCN(c2ncccn2)CC1 [molecule 9] |
| 1.67 | 98.90 | 47.26 | 63.51 | 104.83 | 111.43 | 4.55 | – | – | O=C1c2ccccc2S(=O)(=O)N1CCCCCN1CCN(c2cccc3ccccc23)CC1 [molecule 11] |
| 0.72 | 84.71 | 35.73 | 38.96 | 76.74 | 84.51 | 3.10 | – | – | O=C1c2ccccc2S(=O)(=O)N1CCCCCN1CCN(c2ccccn2)CC1 [molecule 10] |
| 1.53 | 98.11 | 44.30 | 97.99 | 101.36 | 100.81 | 3.98 | – | – | O=C1c2ccccc2S(=O)(=O)N1CCCCCN1CCN(c2ccc(Cl)cc2)CC1 [molecule 8] |
| 1.32 | 96.38 | 42.61 | 56.31 | 100.82 | 100.70 | 3.97 | – | – | O=C1c2ccccc2S(=O)(=O)N1CCCCN1CCN(c2ccc(Cl)cc2)CC1 [molecule 4] |
| 1.75 | 99.25 | 48.85 | 65.07 | 109.08 | 118.03 | 4.91 | – | – | O=C1c2ccccc2S(=O)(=O)N1CCCCCCN1CCN(c2cccc3ccccc23)CC1 [molecule 21] |
| 1.00 | 91.87 | 41.59 | 55.26 | 93.84 | 100.78 | 3.98 | – | – | O=C1c2ccccc2S(=O)(=O)N1CCCCCCN1CCN(c2ccccc2)CC1 [molecule 12] |
| 1.23 | 95.36 | 45.78 | 60.18 | 102.90 | 107.33 | 4.33 | – | – | O=C1c2ccccc2S(=O)(=O)N1CCCCCCN1CCN(c2nsc3ccccc23)CC1 [molecule 24] |
| −0.05 | 47.66 | 34.77 | 41.03 | 80.76 | 89.54 | 3.37 | relatively low-binding to HAS | – | O=C1c2ccccc2S(=O)(=O)N1CCCCCCN1CCN(c2ncccn2)CC1 [molecule 23] |
| 0.65 | 82.67 | 40.04 | 55.04 | 87.50 | 96.78 | 3.76 | – | – | COc1ccc(N2CCN(CCCCCCN3C(=O)c4ccccc4S3(=O)=O)CC2)cc1 [molecule 15] |
| 1.85 | 99.61 | 46.84 | 63.86 | 113.75 | 114.05 | 4.69 | – | – | O=C1c2ccccc2S(=O)(=O)N1CCCCCCN1CCN(c2cccc(C(F)(F)F)c2)CC1 [molecule 19] |
| 0.84 | 88.23 | 39.09 | 52.20 | 89.50 | 95.60 | 3.70 | – | – | O=C1c2ccccc2S(=O)(=O)N1CCCCCN1CCN(c2ccccc2)CC1 [molecule 5] |
| 1.77 | 99.31 | 48.28 | 72.79 | 112.26 | 112.92 | 4.63 | – | – | O=C1c2ccccc2S(=O)(=O)N1CCCCCN1CCN(c2cccc(Cl)c2Cl)CC1 [molecule 7] |
| 1.00 | 91.90 | 42.69 | 57.21 | 97.64 | 104.68 | 4.19 | – | – | O=C1c2ccccc2S(=O)(=O)N1CCCCCCN1CCN(c2ccccc2F)CC1 [molecule 20] |
| 2.27 | – | 50.19 | 65.39 | 119.04 | 118.39 | 4.93 | – | higher affinity to reference diclofenac | O=C1c2ccccc2S(=O)(=O)N1CCCCCCN1CCN(c2ccc(Cl)c(Cl)c2)CC1 [molecule 18] |
| 0.68 | 83.59 | 38.03 | 52.94 | 79.45 | 91.77 | 3.49 | – | – | COc1ccccc1N1CCN(CCCCCN2C(=O)c3ccccc3S2(=O)=O)CC1 [molecule 6] |
